# In EP2070923A1, “Insecticide iminoheterocycles” (priority 2007, dated 2009):
# Where two headings read alike, the source gives them in different places.
# Experiments:
# [1] = logP (HCOOH); conditions: hplc, formic acid
# [2] = tested on: Myzus persicae; test: Myzus test (spray treatment); assay type: in vivo; conditions: foliar, read-out: Wirkung
# Source text: Myzus-Test (Spritzbehandlung)
# (§1) Zur Herstellung einer zweckmäßigen Wirkstoffzubereitung vermischt man 1 Gewichtsteil Wirkstoff mit den angegebenen Mengen Lösungsmittel und Emulgator und verdünnt das Konzentrat mit emulgatorhaltigem Wasser auf die gewünschte Konzentration. Chinakohlblattscheiben (Brassica pekinensis), die von allen Stadien der Grünen Pfirsichblattlaus (Myzus persicae) befallen sind, werden mit einer Wirkstoffzubereitung der gewünschten Konzentration gespritzt. Nach der gewünschten Zeit wird die Wirkung in % bestimmt. Dabei bedeutet 100 %, dass alle Blattläuse abgetötet wurden; 0 % bedeutet, dass keine Blattläuse abgetötet wurden. Bei diesem Test zeigen z. B. die folgenden Verbindungen der Herstellungsbeispiele eine Wirkung von ≥ 80 % bei einer Aufwandmenge von 500 g/ha: • Bsp. Nr. 2, 3, 31, 32, 33, 36, 37, 39, 40, 41, 42, 43, 44, 45, 46, 63, 64, 65, 66, 86, 87, 88, 90, 95, 96, 97, 99, 103
# [3] = physchem; conditions: hplc, formic acid
# [4] = tested on: Meloidogyne incognita; test: Meloidogyne test (spray treatment), gall formation on lettuce roots; assay type: in vivo; conditions: 20 ppm; 100 % = no galls found
# Source text: Meloidogyne-Test (Spritzbehandlung)
# Zur Herstellung einer zweckmäßigen Wirkstoffzubereitung vermischt man 1 Gewichtsteil Wirkstoff mit der angegebenen Menge Lösungsmittel und verdünnt das Konzentrat mit Wasser auf die gewünschte Konzentration. Gefäße werden mit Sand, Wirkstofflösung, Meloidogyne incognita-Ei-Larven-Suspension und Salatsamen gefüllt. Die Salatsamen keimen und die Pflänzchen entwickeln sich. An den Wurzeln entwickeln sich die Gallen. Nach der gewünschten Zeit wird die nematizide Wirkung an Hand der Gallenbildung in % bestimmt. Dabei bedeutet 100 %, dass keine Gallen gefunden wurden; 0 % bedeutet, dass die Zahl der Gallen an den behandelten Pflanzen der der unbehandelten Kontrolle entspricht. Bei diesem Test zeigen z. B. die folgenden Verbindungen der Herstellungsbeispiele eine Wirkung von ≥ 80 % bei einer Aufwandmenge von 20 ppm: • Bsp. Nr. 15, 16, 18
# [5] = tested on: Boophilus microplus; test: Boophilus microplus test (injection); assay type: in vivo; conditions: 20 µg/Tier; injection into abdomen; 100 % = no tick laid fertile eggs
# Source text: Boophilus microplus -Test (Injektion)
# Zur Herstellung einer zweckmäßigen Wirkstoffzubereitung vermischt man 1 Gewichtsteil Wirkstoff mit der angegebenen Menge Lösungsmittel und verdünnt das Konzentrat mit Lösungsmittel auf die gewünschte Konzentration. Die Wirkstofflösung wird in das Abdomen (Boophilus microplus) injiziert, die Tiere werden in Schalen überführt und in einem klimatisierten Raum aufbewahrt. Nach der gewünschten Zeit wird die Wirkung in % bestimmt. Dabei bedeutet 100%, dass keine Zecke fertile Eier gelegt hat. Bei diesem Test zeigen z. B. die folgenden Verbindungen der Herstellungsbeispiele eine Wirkung von = 80 % bei einer Aufwandmenge von 20 µg/Tier: • Bsp. Nr. 43, 44, 45, 46, 63, 64, 65, 66
# [6] = tested on: Tetranychus urticae; test: Tetranychus test, OP-resistant (spray treatment); assay type: in vivo; conditions: foliar, spray on Phaseolus vulgaris leaf discs, 100 % = all spider mites killed, read-out: Wirkung
# Source text: Tetranychus-Test, OP-resistent (Spritzbehandlung)
# as §1, with “Bohnenblattscheiben (Phaseolus vulgaris),” for “Chinakohlblattscheiben (Brassica pekinensis),”, “Gemeinen Spinnmilbe (Tetranychus urticae)” for “Grünen Pfirsichblattlaus (Myzus persicae)”, “Spinnmilben” for “Blattläuse”, “100” for “500”, “83” for “2, 3, 31, 32, 33, 36, 37, 39, 40, 41, 42, 43, 44, 45, 46, 63, 64, 65, 66, 86, 87, 88, 90, 95, 96, 97, 99, 103”
# [7] = 500 g/ha, spray on Brassica pekinensis leaf discs, 100 % = all aphids killed
compound,measurement,setting,value
"CCNC(=S)N1CCO/C1=N/C(C)c1ccccn1 (centres unmarked) [Beispiel 2, (2E)-N-ethyl-2-[(1-pyridin-2-ylethyl)imino]-1,3-oxazolidine-3-carbothioamid]",chromatographic logP,[1],1.26
same,mortality at 500 g/ha,[2]; [7],≥ 80%
COCCNC(=S)N1CCOC1=NC(C)c1ccccn1 (centres unmarked) [Beispiel 3],chromatographic logP,[1],1.12
same,mortality at 500 g/ha,[2]; [7],≥ 80%
CCC(N=C1NCCO1)c1ccc(C(F)(F)F)cn1 (centres unmarked) [Beispiel 4],chromatographic logP,[3],0.97
CCC(N=C1OCCN1C(=O)NCCCl)c1ccc(C(F)(F)F)cn1 (centres unmarked) [Beispiel 5],chromatographic logP,[1],2.15
CCC(N=C1OCCN1C(=S)NCCOC)c1ccc(C(F)(F)F)cn1 (centres unmarked) [Beispiel 6],chromatographic logP,[1],3.69
CCNC(=S)N1CCOC1=NC(CC)c1ccc(C(F)(F)F)cn1 (centres unmarked) [Beispiel 7],chromatographic logP,[1],3.85
CCC(N=C1NCCO1)c1ccc(C)c(C)n1 (centres unmarked) [Beispiel 8],chromatographic logP,[3],0.06
CCC(N=C1OCCN1C(=O)NCCCl)c1ccc(C)c(C)n1 (centres unmarked) [Beispiel 9],chromatographic logP,[1],1.18
CCNC(=S)N1CCOC1=NC(CC)c1ccc(C)c(C)n1 (centres unmarked) [Beispiel 10],chromatographic logP,[1],1.14
CCC(N=C1OCCN1C(=S)NCCOC)c1ccc(C)c(C)n1 (centres unmarked) [Beispiel 11],chromatographic logP,[1],1.33
CCC(N=C1NCCO1)c1ccccn1 (centres unmarked) [Beispiel 12],chromatographic logP,[3],-0.01
CCNC(=S)N1CCOC1=NC(CC)c1ccccn1 (centres unmarked) [Beispiel 13],chromatographic logP,[1],1.53
CCNC(=S)N1CCOC1=NC(C)c1cccnc1 (centres unmarked) [Beispiel 15],nematizide Wirkung an Hand der Gallenbildung,[4],≥ 80%
same,chromatographic logP,[1],1.16
COCCNC(=S)N1CCOC1=NC(C)c1cccnc1 (centres unmarked) [Beispiel 16],nematizide Wirkung an Hand der Gallenbildung,[4],≥ 80%
same,chromatographic logP,[1],1.07
CCNC(=S)N1CCOC1=NC(C)c1ccncc1 (centres unmarked) [Beispiel 18],nematizide Wirkung an Hand der Gallenbildung,[4],≥ 80%
same,chromatographic logP,[1],1.07
COCCNC(=S)N1CCOC1=NC(C)c1ccncc1 (centres unmarked) [Beispiel 19],chromatographic logP,[1],1
CCC(N=C1OCCN1C(=S)NCCOC)c1cc(Br)cs1 (centres unmarked) [Beispiel 30],chromatographic logP,[1],4.48
CCNC(=S)N1CCOC1=NC(CC)c1cc(Br)cs1 (centres unmarked) [Beispiel 31],chromatographic logP,[1],4.72
same,mortality at 500 g/ha,[2]; [7],≥ 80%
c1cc(CN=C2NCCO2)cs1 [Beispiel 32],chromatographic logP,[3],-0.05
same,mortality at 500 g/ha,[2]; in Brassica rapa,≥ 80%
CCNC(=S)N1CCOC1=NCc1ccsc1 [Beispiel 33],chromatographic logP,[1],2.56
same,mortality at 500 g/ha,[2]; [7],≥ 80%
COCCNC(=S)N1CCOC1=NCc1ccsc1 [Beispiel 34],chromatographic logP,[1],2.71
CNC(=S)N1CCOC1=NCc1ccsc1 [Beispiel 35],chromatographic logP,[1],1.83
CC(N=C1NCCO1)c1cccs1 (centres unmarked) [Beispiel 36],chromatographic logP,[3],0.28
same,mortality at 500 g/ha,[2]; in Brassica rapa,≥ 80%
C[C@H](N=C1NCCO1)c1cccs1 [Beispiel 37],chromatographic logP,[3],0.33
same,mortality at 500 g/ha,[2]; in Brassica rapa,≥ 80%
c1csc(CN=C2NCCO2)c1 [Beispiel 39],chromatographic logP,[3],-0.08
same,mortality at 500 g/ha,[2]; in Brassica rapa,≥ 80%
CNC(=S)N1CCOC1=NCc1cccs1 [Beispiel 40],chromatographic logP,[1],2.45
same,mortality at 500 g/ha,[2]; [7],≥ 80%
COCCNC(=S)N1CCOC1=NCc1cccs1 [Beispiel 42],chromatographic logP,[1],2.84
same,mortality at 500 g/ha,[2]; [7],≥ 80%
CNC(=S)N1CCOC1=NC(C)c1cccs1 (centres unmarked) [Beispiel 43],Wirkung,[5],80%
same,chromatographic logP,[1],2.99
same,mortality at 500 g/ha,[2]; [7],≥ 80%
CCNC(=S)N1CCOC1=NC(C)c1cccs1 (centres unmarked) [Beispiel 44],Wirkung,[5],80%
same,chromatographic logP,[1],3.58
same,mortality at 500 g/ha,[2]; [7],≥ 80%
COCCNC(=S)N1CCOC1=NC(C)c1cccs1 (centres unmarked) [Beispiel 45],Wirkung,[5],80%
same,chromatographic logP,[1],3.28
same,mortality at 500 g/ha,[2]; [7],≥ 80%
CC(N=C1OCCN1C(=S)NCC(F)(F)F)c1cccs1 (centres unmarked) [Beispiel 46],Wirkung,[5],80%
same,chromatographic logP,[1],3.99
same,mortality at 500 g/ha,[2]; [7],≥ 80%
CNC(=S)N1CCOC1=N[C@@H](C)c1cccs1 [Beispiel 63],Wirkung,[5],80%
same,chromatographic logP,[1],3.02
same,mortality at 500 g/ha,[2]; [7],≥ 80%
CCNC(=S)N1CCOC1=N[C@@H](C)c1cccs1 [Beispiel 64],Wirkung,[5],80%
same,chromatographic logP,[1],3.59
same,mortality at 500 g/ha,[2]; [7],≥ 80%
C[C@H](N=C1OCCN1C(=S)NCC(F)(F)F)c1cccs1 [Beispiel 66],Wirkung,[5],80%
same,chromatographic logP,[1],3.98
same,mortality at 500 g/ha,[2]; [7],≥ 80%
CCn1ccc(C(C)N=C2OCCN2C(=S)NC)n1 (centres unmarked) [Beispiel 76],chromatographic logP,[1],1.45
Cn1cccc1CN=C1NCCO1 [Beispiel 80],chromatographic logP,[3],-0.09
COCCNC(=S)N1CCOC1=NCc1cccn1C [Beispiel 83],mortality at 100 g/ha,[6],≥ 80%
same,chromatographic logP,[1],2.37
CCC(N=C1OCCN1C(=S)NC)c1cccs1 (centres unmarked) [Beispiel 86],chromatographic logP,[1],3.46
same,mortality at 500 g/ha,[2]; [7],≥ 80%
CCNC(=S)N1CCOC1=NC(CC)c1cccs1 (centres unmarked) [Beispiel 87],chromatographic logP,[1],4.06
same,mortality at 500 g/ha,[2]; [7],≥ 80%
CCC(N=C1OCCN1C(=S)NCCOC)c1cccs1 (centres unmarked) [Beispiel 88],chromatographic logP,[1],3.71
same,mortality at 500 g/ha,[2]; [7],≥ 80%
c1coc(CN=C2NCCO2)c1 [Beispiel 90],chromatographic logP,[3],-0.23
same,mortality at 500 g/ha,[2]; in Brassica rapa,≥ 80%
CNC(=S)N1CCOC1=NCc1ccco1 [Beispiel 91],chromatographic logP,[1],1.89
CCNC(=S)N1CCOC1=NCc1ccco1 [Beispiel 92],chromatographic logP,[1],2.58
COCCNC(=S)N1CCOC1=NCc1ccco1 [Beispiel 93],chromatographic logP,[1],2.84
FC(F)(F)CNC(=S)N1CCOC1=NCc1ccco1 [Beispiel 94],chromatographic logP,[1],3.29
CC(N=C1NCCO1)c1ccco1 (centres unmarked) [Beispiel 95],mortality at 500 g/ha,[2]; in Brassica rapa,≥ 80%
CNC(=S)N1CCOC1=NC(C)c1ccco1 (centres unmarked) [Beispiel 96],chromatographic logP,[1],2.38
same,mortality at 500 g/ha,[2]; [7],≥ 80%
C[C@H](N=C1NCCS1)c1cccs1 [Beispiel 101],chromatographic logP,[3],0.54
CC(N=C1NCCO1)c1cc2ccccc2o1 (centres unmarked) [Beispiel 103],chromatographic logP,[3],0.93
same,mortality at 500 g/ha,[2]; in Brassica rapa,≥ 80%
CNC(=S)N1CCOC1=NC(C)c1cc2ccccc2o1 (centres unmarked) [Beispiel 104],chromatographic logP,[1],3.64
CCNC(=S)N1CCOC1=NC(C)c1cc2ccccc2o1 (centres unmarked) [Beispiel 105],chromatographic logP,[1],4.18
COCCNC(=S)N1CCOC1=NC(C)c1cc2ccccc2o1 (centres unmarked) [Beispiel 106],chromatographic logP,[1],3.9
CC(N=C1OCCN1C(=S)NCC(F)(F)F)c1cc2ccccc2o1 (centres unmarked) [Beispiel 107],chromatographic logP,[1],4.47
CCNC(=S)N1CCOC1=NC(CC)c1ccc(Cl)s1 (centres unmarked) [Beispiel 108],chromatographic logP,[1],4.96
CC(C)NC(=S)N1CCOC1=NCc1ccc(Cl)nc1 [Beispiel 187],chromatographic logP,[3],3.14
CCOC(=O)CNC(=S)N1CCOC1=NCc1ccc(Cl)nc1 [Beispiel 188],chromatographic logP,[1],2.54
CC(N=C1NCCO1)c1ccnc(Cl)c1 (centres unmarked) [Beispiel 194],chromatographic logP,[3],0.02
CNC(=S)N1CCOC1=NC(C)c1ccnc(Cl)c1 (centres unmarked) [Beispiel 195],chromatographic logP,[1],2.58
CCNC(=S)N1CCOC1=NC(C)c1ccnc(Cl)c1 (centres unmarked) [Beispiel 196],chromatographic logP,[1],3.07
COCCNC(=S)N1CCOC1=NC(C)c1ccnc(Cl)c1 (centres unmarked) [Beispiel 197],chromatographic logP,[1],2.83
CCOC(=O)CNC(=S)N1CCOC1=NC(C)c1ccnc(Cl)c1 (centres unmarked) [Beispiel 198],chromatographic logP,[1],3.14
